We go through 2 compounds from patent US20030143634A1, “Method to detect interactions between cellular components in intact living cells, and to extract quantitative information relating to those interactions by fluorescence redistribution” (Biolmage A/S, priority 2001, published 2003).

The target in test [1] is T1, FRB(T2098L) and FKBP (Homo sapiens, UniProt P42345+P62942, T2098L).
T1 construct: expressed in transfected cells; host or cells: CHO
The test is described as follows: 3-part ActinPaint iGRIP system, response to dimerizer. Type of test: cell-based. To be noted: CHO cells, 800 nM AP21967, 37° C. The text has this:
(§1) In this specific example, the 3 components of this second system were as follows:
(§2) 1) The anchor conjugate was made by fusing the F-actin binding domain of α-actinin (amino acids 1-133 of full protein sequence) to FRB(T2098L) [ps1570] (also referred to as FRB*). The cellular localization of the anchor could be detected with an antibody directed against the HA-tag included in the anchor fusion protein
(§3) 2) The mediator conjugate [ps1556] comprised wild-type FKBP protein fused to tandem repeats of FKBP(F36M), a mutant form of the protein that is known as FM and also CAD, and the coding plasmid for which was obtained from ARIAD Pharmaceuticals
(§4) 3) The detectable conjugate was made by fusing tandem repeats of CAD to EGFP [ps1547].
The three conjugates are depicted in diagrammatic form in FIG. 5a. […]
(§5) For compatibility with high throughput screening the cells were grown in microtitre plates for 16 hours from a seeding density of 1.0×10E5 cells per 400 μL, and an extraction procedure (described in Example 3) was used to remove mobile fluorescent components from cells, so that signal from immobile components could be measured. Plates were routinely stained with the nuclear dye Hoechst 22538 to enable correction of the immobile EGFP fluorescence signal from each well for cell density. […]

Test [2] deals with T1, FRB(T2098L) and FKBP. Briefly: 2-part ActinPaint system, response to dimerizer. Type of test: cell-based. The settings on record: CHO cells. On the procedure: The first system consists of 2 parts, an anchor conjugated to FRB(T2098L) [plasmid construct ps1570] and a detectable conjugate comprising FKBP fused to EGFP [ps1208]—these conjugates are depicted in FIG. 4a. […] The 2-part assay also acts as counter screen for any compounds that may directly or indirectly affect the location of the anchor protein itself within the cell.
For compatibility with high throughput screening the cells were grown in microtitre plates for 16 hours from a seeding density of 1.0×10E5 cells per 400 μL, and an extraction procedure (described in Example 3) was used to remove mobile fluorescent components from cells, so that signal from immobile components could be measured. Plates were routinely stained with the nuclear dye Hoechst 22538 to enable correction of the immobile EGFP fluorescence signal from each well for cell density.
Signals from immobile EGFP-labelled components and from the nuclear stain were read on an fluorescence plate reader (Fluoroskan Ascent CF, Labsystems, Finland) equipped with appropriate filter sets (EGFP: excitation 485 nm, emission 527 nm; Hoechst 22538: excitation 355 nm, emission 460 nm). […] For further experiments a dimerizer concentration of 800 nM for 2 hours was selected as giving adequate signal to background for extracted cells to be read on the Ascent plate reader.

The target of test [3] is T1, FRB(T2098L) and FKBP. The test is described as follows: 2-part Histone H2B system, response to dimerizer and competition by FK506. Type of test: cell-based. To be noted: CHO cells. How it is done:
The 2-part assay also acts as counter screen for any compounds that may directly or indirectly affect the location of the anchor protein itself within the cell.
(§6) For compatibility with high throughput screening the cells were grown in microtitre plates for 16 hours from a seeding density of 1.0×10E5 cells per 400 μL, and an extraction procedure (described in Example 3) was used to remove mobile fluorescent components from cells, so that signal from immobile components locked in the nucleus could be measured. Plates were routinely stained with the nuclear dye Hoechst 22538 to enable correction of the immobile EGFP fluorescence signal from each well for cell density.
Signals from immobile EGFP-labelled components and from the nuclear stain were read on an fluorescence plate reader (Fluoroskan Ascent CF, Labsystems, Finland) equipped with appropriate filter sets (EGFP: excitation 485 nm, emission 527 nm; Hoechst 22538: excitation 355 nm, emission 460 nm).

Test [4] addresses T1, FRB(T2098L) and FKBP. Briefly: 2-part Src(1-14) system, response to dimerizer. Type of test: cell-based. To be noted: CHO cells, 500 nM AP21967 for 60 minutes. The text has this: The first system consists of 2 parts, an anchor conjugated to FRB(T2098L) [plasmid construct ps1549] and a detectable conjugate comprising FKBP fused to EGFP [ps1208]. […] The 2-part assay also acts as counter screen for any compounds that may directly or indirectly affect the location of the anchor protein itself within the cell.
CHO cells were transfected and cultured essentially as described in Example 2, except the complement of plasmids required for the 2 and 3-part systems were transfected simultaneously rather than sequentially (as described in Example 2).
For selection of co-expressing cells, 2-part system cells transfected with ps1549+ps1208 were cultured with 1 mg/ml zeocin+5 μg/ml blasticidin HCl. Cells of the 3-part system were cultured with 1 mg/ml zeocin+5 μg/ml blasticidin HCl+0.5 mg/ml G418 sulphate.
This redistribution response to dimerizer is robust and can be competed by FK506. In the 3-part system, the response can also be competed by compound AP21998.
Without dimerizer present in the medium, cells from both 2- and 3-part Src(1-14) systems display a more or less uniform distribution of GFP fluorescence, throughout cytoplasmic and nuclear compartments (FIGS. 23a and 24a). Dimerizer addition results in recruitment of the CAD-linked mediator+detectable complexes to the plasma membrane (FIGS. 23b and 24b). […]

Test [5] addresses T1, FRB(T2098L) and FKBP. Briefly: 3-part Src(1-14) system, response to dimerizer. The class given is cell-based. The settings on record: CHO cells, 500 nM AP21967 for 120 minutes.
Source text: as §1
1) The anchor conjugate was made by fusing c-Src(1-14) to FRB(T2098L) [ps1549]. The cellular localization of the anchor could be detected with an antibody directed against the HA-tag included in the anchor fusion protein
as §3, §4
The three conjugates are depicted in diagrammatic form in FIG. 5a. CAD proteins spontaneously homodimerize, so mediator and detectable conjugates are normally linked together in the 3-part system (FIG. 5b). Therefore in this example, the protein interaction to be tested was the CAD:CAD link between mediator and detectable conjugates. […] The link between CAD proteins can be broken by ARIAD compound AP21998 (FIG. 5d). AP21998 was therefore used as the reference compound to validate the system. […]
Without dimerizer present in the medium, cells from both 2- and 3-part Src(1-14) systems display a more or less uniform distribution of GFP fluorescence, throughout cytoplasmic and nuclear compartments (FIGS. 23a and 24a). […]

The target of test [6] is T2, CAD:CAD link between mediator and detectable conjugates (Homo sapiens, UniProt P62942, F37M).
T2 construct: expressed in transfected cells; host or cells: CHO
The test is described as follows: 3-part ActinPaint iGRIP system, interaction inhibitor dose-response (extraction procedure, plate reader). The class given is cell-based. To be noted: CHO cells.
Source text: as §1, §2, §3, §4
The three conjugates are depicted in diagrammatic form in FIG. 5a. CAD proteins spontaneously homodimerize, so mediator and detectable conjugates are normally linked together in the 3-part system (FIG. 5b). Therefore in this example, the protein interaction to be tested was the CAD:CAD link between mediator and detectable conjugates. […] The link between CAD proteins can be broken by ARIAD compound AP21998 (FIG. 5d). AP21998 was therefore used as the reference compound to validate the system. CHO cells were transfected and cultured essentially as described in Example 2, except the complement of plasmids required for the 2 and 3-part systems were transfected simultaneously rather than sequentially (as described in Example 2).
as §5
ActinPaint system. […] Plates were processed for extraction and nuclear staining then read in an Ascent plate reader. […]

Test [7] concerns the target T2, CAD:CAD link between mediator and detectable conjugates. The test is described as follows: 3-part Histone H2B iGRIP system, interaction inhibitor dose-response (extraction procedure, plate reader). To be noted: CHO cells. The class given is cell-based.
Source text: as §1
1) The anchor conjugate was made by fusing histone H2B to FRB(T2098L) [ps1569] (also referred to as FRB*). The cellular localization of the anchor could be detected with an antibody directed against the HA-tag included in the anchor fusion protein
as §3, §4
The three conjugates are depicted in diagrammatic form in FIG. 5a. CAD proteins spontaneously homodimerize, so mediator and detectable conjugates are normally linked together in the 3-part system (FIG. 5b). Therefore in this example, the protein interaction to be tested was the CAD:CAD link between mediator and detectable conjugates. […] The link between CAD proteins can be broken by ARIAD compound AP21998 (FIG. 5d). AP21998 was therefore used as the reference compound to validate the system.
as §6
Dose-response of this CAD-interaction inhibitor in the 3-part Histone H2B system could be compared with the compound's efficacy and potency in other systems, to determine if similar sensitivity to the inhibitor (and other inhibitors) could be expected from the Histone H2B system. […] Plates were processed for extraction and nuclear staining then read in an Ascent plate reader. […]

The subject of test [8] is transcription factor-based detection system. The settings on record: data supplied by ARIAD Pharmaceuticals (RPD kit fact sheet); cited from earlier work.
Where [9] appears, read: 1000 nM AP21967, 2 hours, extraction procedure.
The mark [10] stands for this setting: AP21998 greater than 5 μM plus 800 nM AP21967, 2 hours.

For the compound `CO[C@H]1[C@@H](O)[C@H](C)C[C@H](C)/C=C/C=C/C=C(\C)[C@@H](c2c[nH]c3c(C)cccc23)C[C@@H]2CC[C@@H](C)[C@@](O)(O2)C(=O)C(=O)N2CCCC[C@H]2C(=O)O[C@H]([C@H](C)C[C@@H]2CC[C@@H](O)[C@H](OC)C2)C[C@H](O)[C@H](C)/C=C(\C)[C@H]1O` [AP21967], the “time after which EGFP labelling of aggregates is clearly visible” value on FRB(T2098L) and FKBP [1] is 15 min. In addition, the “time after which recruitment of fluorescence to F-actin aggregates is visible” value at FRB(T2098L) and FKBP [2] (800 nM AP21967, 37° C.) was 2 min. In addition, the “increase of signal from immobile EGFP-labelled components relative to untreated cells” value at FRB(T2098L) and FKBP [2] (setting [9]) was “approximately 3 fold”. Besides, at FRB(T2098L) and FKBP [3] (800 nM AP21967, 37° C.), the “time after which recruitment of fluorescence to the nuclei is visible” value was 2 min and the “time to maximum response (recruitment to nuclei)” value was “approximately 10 minutes”. In addition, the “increase of signal from immobile EGFP-labelled components relative to untreated cells” value on FRB(T2098L) and FKBP [3] (setting [9]) was “approximately 2 fold”. Further, the “EGFP distribution in micrograph (FIG. 23b)” value at FRB(T2098L) and FKBP [4] is listed as “recruited to the plasma membrane”. In addition, the “EGFP distribution in micrograph (FIG. 24b)” value at FRB(T2098L) and FKBP [5] was “recruited to the plasma membrane”.

`CC[C@H](C(=O)N1CCCCC1C(=O)O[C@H](CCc1ccc(OC)c(OC)c1)c1cccc(OCC(=O)NCCCN(C)C)c1)c1cc(OC)c(OC)c(OC)c1` (stereo partly drawn) [AP21998]: in test [6] (5 μM AP21998 for 2 hours after 800 nM AP21967 for 60 minutes, continued presence of AP21967), the “EGFP distribution in micrograph (FIG. 7c)” value is “The bright aggregates have dispersed into the cytoplasm”. In addition, the “EGFP-label remaining on the F-actin aggregates” value in test [6] (setting [10]) is recorded as “no EGFP-label remained on the aggregates”. The EC50 in test [6] (co-treated with 800 nM AP21967, 2 hours, 37° C., read-out: EC50 for the prevention of recruitment / removal of EGFP-labelled components from the F-actin aggregates) was about 1.1 µM; in test [7] (co-treated with 800 nM AP21967, 2 hours, 37° C., read-out: EC50 for the prevention of recruitment / removal of EGFP-labelled components from the nuclear compartment) it was about 1.8 µM; in test [8], about 0.2 µM. Moreover, in test [7] (800 nM AP21967 + 5 μM AP21998 for 2 hours), the “EGFP distribution in micrograph (FIG. 15c)” value was “no nuclear accumulation”. For the same compound, the “EGFP-label remaining in the nuclei” value in test [7] (setting [10]) is reported as “no EGFP-label remained in the nuclei”.
